Results on five substances are retold here after US20040171093A1, “Methods for detecting deficient cellular membrane tightly bound magnesium for disease diagnoses” (priority 1999, published 2004).

Experiment [1] concerns magnesium deficient erythrocytes. Put plainly: Promotion of magnesium binding in magnesium depleted erythrocyte membranes (in vitro screen). It counts as cell-based, human. The conditions noted are these: for Magnesium Binding: aged Mg-deficient human erythrocytes incubated in 5 mL medium, 37° C., three hours, peptide amount equimolar to 6 ugm Substance P, quadruplet mean (n) or duplicate values; for measurable binding of magnesium ions to the erythrocyte membrane (in words): uptake in excess of that with KRPG alone; for approximate ratios of binding activities: magnesium uptake in excess of KRPG alone, normal plasma = 1; for activity relative to Substance P in promoting magnesium binding / correcting the MgBD: equal molar amounts tested. As to the method:
In order to identify those substances which promote binding of magnesium ion to plasma membranes (tightly bound magnesium ion) and that ameliorate or correct the magnesium binding defect, a deficit of membrane tightly bound magnesium was created experimentally in erythrocytes without the magnesium binding defect. Human erythrocytes were obtained from blood samples that had been drawn two days previously and kept for varying periods of time at room temperature, or at approximately 5° C. Preferred results were obtained with those samples in which either sodium citrate or sodium heparin was the anticoagulant. The length of time held and time held before moving to room temperature or 5° C is not believed to be critical. Although it was possible to create the MgBD in cells held as above, more reproducible results would be expected if fresh drawn blood were to be used.
The following procedure was employed to generate a deficit of plasma membrane tightly bound magnesium ion in the erythrocytes. Art recognized adaptations of this procedure can be used for generation of a deficit in other somatic cells, such as from urine or buccal cells. Samples of blood described above were kept at room temperature overnight and then pooled in a beaker placed in crushed ice and the blood was stirred slowly to collect any fibrin that may have formed. The blood was then centrifuged (600×g, 15 minutes) at 5° C. and the plasma layer removed by aspiration. Residual plasma was removed from the cells by suspending them twice in equal volumes of cold normal saline and then twice in equal volumes of cold Alsever's solution (trisodium citrate 32.5 mM, citric acid 2.7mM, D-glucose 114 mM, NaCl 137 mM, pH 6.1). Finally, the washed cells were suspended again in an equal volume of the same Alsever's solution to which approximately 1.25 mg/ml of sodium deoxycholate was added. This suspension was filtered through cheese cloth and kept at 4° C. with gently mixing once each day. Although the Alsever's plus sodium deoxycholate solution is a preferred example of a holding solution, any cell stabilizing buffer plus sodium deoxycholate may be utilized in the practice of the invention.
The concentration of magnesium ion tightly bound to the erythrocyte membranes was determined by using 5 mL portions of the approximately two day old blood sample and the stored erythrocyte suspension. After these portions were centrifuged as above and the supernatant fluids aspirated, the residues of cells were suspended four times in 15 mL portions of cold hemolyzing buffer (Tris Tris HCl 5 mM, sucrose 14 mM, pH 7.4) and centrifuged (15,000×g, 15 minutes). The supernatant fluids were removed by gentle aspiration. The decanting procedure was repeated as necessary to remove all of the dark red residue (Example 1). The penultimate residue was resuspended by gently pouring the hemolyzing buffer onto the residue and decanting the readily suspended cell membranes from the small, dark red, dense residue which adhered to the centrifuge tube. The final, nearly colorless residue of membranes was transferred and brought to a total volume of 25 mL in a volumetric flask using the hemolyzing buffer. These preparations of erythrocyte membranes were stored at 4° C. until the total protein contents were determined by the Bicinchoninic Acid procedure and the total magnesium contents determined by atomic absorption spectroscopy. From these values the concentrations of tightly bound magnesium in the cell membranes were expressed as nanograms of magnesium per 0.50 mg of membrane protein. This determination of the magnesium binding was repeated each day or so until the level of binding first ceased to decrease.
Preparations of aged erythrocytes in which the MgBD has been developed were used as soon as possible in incubations with normal blood plasma, and other magnesium containing fluids, in search of substances which could correct the MgBD (Example 7). […]

For a further experiment, the system named is normotensive subjects. The conditions noted are these: Qu and Stuesse, 1990; cited from earlier work.
The test system of experiment [2] is SS/Jr rats. The experiment can be described thus: Tightly bound magnesium in erythrocyte membranes after i.v. tetrapeptide, hypertensive rats. To be noted: intravenous administration. The experiment is classed as in vivo, rat. As to the method:
(§1) The rats were allowed to rest for one day and then one-half of the SS/Jr and one-half of the Sprague-Dawley rats were injected as above with 3.0 ugm/kg of the tetrapeptide (SEQ ID NO:2). All of the rats were sacrificed by decapitation 30 minutes later and the blood from each rat was collected in a centrifuge tube containing sufficient heparin to prevent clotting. The blood samples were centrifuged (1,000×g, 20 minutes) at 5° C. and the individual plasma layers were removed and frozen. The residues of erythrocytes were suspended three times in cold, normal saline and then were hemolyzed by the addition of 15 mL of cold hemolyzing buffer (10 mM Tris Tris HCl, pH 7.4). This buffer was then used in the isolation of the erythrocyte membranes from these hemolysates and in the determination of their total magnesium and protein contents as described above.

Experiment [3] has as its system Sprague-Dawley rats. The experiment can be described thus: Tightly bound magnesium in erythrocyte membranes after i.v. tetrapeptide, normotensive control rats. The experiment is classed as in vivo, rat. To be noted: intravenous administration. As to the method:
as §1

Experiment [4] deals with SS/Jr rats. Put plainly: Plasma glucose (anthrone method) after i.v. tetrapeptide, SS/Jr rats. The experiment is classed as in vivo, rat. To be noted: 3.0 ugm/kg i.v., 30 minutes. As to the method:
as §1
(§2) The glucose concentrations in the reserved plasma samples were determined by the anthrone method (Rendina, 1971). The concentrations in the injected SS/Jr rats were not different from those of the SS/Jr rats which were not injected with the tetrapeptide. This was also the case with the Sprague-Dawley control rats. Thus, the values of the SS/Jr rats were combined and compared with the combined, control values of the Sprague-Dawley rats as follows: 149.2±7.5 (15) vs. 100.7±11.2 (4) mg/100 mL., P<0.01. […]

The subject of experiment [5] is SS/Jr rats. The experiment can be described thus: Systolic blood pressure after i.v. tetrapeptide, tail-cuff method, hypertensive rats. It counts as in vivo, rat. As to the method: (§3) In this procedure the systolic blood pressure was measured in conscious animals by using the photoelectric, tail-cuff, compression method as follows. The animal was placed in an incubator at 40° for twenty minutes in order to elevate its body temperature. The cuff, which was placed around the tail, included sensor which provided the pressure signal which was recorded onto a chart. After the pre-injection pressure was recorded, the animal was immediately injected through the tail vein with 168 uL of a freshly prepared solution of the tetrapeptide (SEQ ID NO:2) in normal saline.
(§4) In the initial experiments, the blood pressure was recorded at 5, 10, 30, 60 and 300 minutes after the administration of the tetrapeptide. There was no further decrease in the blood pressure after 10 minutes and the blood pressure returned to the pre-injection level within 60 minutes. Therefore, in further experiments, the blood pressure of each animal was recorded 10 minutes after the injection of the tetrapeptide.

For experiment [6], the system named is Sprague-Dawley rats. Put plainly: Systolic blood pressure after i.v. peptide, tail-cuff method, normotensive control rats. It counts as in vivo, rat. As to the method:
as §3, §4

Experiment [7] has as its system erythrocytes from essential hypertensive patients. The experiment can be described thus: Remediation of magnesium binding defect in vitro, erythrocytes from essential hypertensive patients. The experiment is classed as cell-based, human. To be noted: incubated for 3 hrs. at 37° C. How it is done: The effect of the tetrapeptide (SEQ ID NO:2) and pentapeptide (SEQ ID NO:1) on the binding of magnesium by the erythrocyte membrane was ascertained by measuring the magnesium contents of ghosts after the erythrocytes from essential hypertensive patients and normal controls were incubated with one or both of the peptides. For this purpose, two 10 ml samples of heparinized blood from essential hypertensive subjects were utilized. After the plasma was separated from the erythrocytes, the erythrocytes were washed twice with 10 ml of cold erythrocyte wash and the peptides were then added to the erythrocytes from the hypertensive subjects and the mixtures were incubated for 3 hrs. at 37° C., chilled on ice and the erythrocyte ghosts were prepared and analyzed for magnesium and protein as described in Example 1.

The test system of experiment [8] is Sprague-Dawley rats. Put plainly: Plasma glucose (anthrone method) after i.v. tetrapeptide, Sprague-Dawley rats. It counts as in vivo, rat. The conditions noted are these: 3.0 ugm/kg i.v., 30 minutes. How it is done: as §1, §2

Values joined by “and” are separate entries in the source; they are usually repeats but may differ in a detail not shown here. Identical values can stand only once. “Also recorded” adds a separate entry of the source. Ends that are not written are not given here.

With “1-9 Substance P: commercial preparation of amidated peptide derived from the N-terminal region of Substance P (RPKPQQFFG-NH2; UniProt P20366 58-66, looked up, fragment) [reference compound]”, in experiment [1], the “Magnesium Binding” value was 500 Nanograms of magnesium per 0.50 mg of membrane protein and 490 Nanograms of magnesium per 0.50 mg of membrane protein; the “measurable binding of magnesium ions to the erythrocyte membrane (in words)” value (“measurable binding of magnesium ions” for short) is “no measurable activity”.
“9-11 Substance P: commercial preparation of amidated peptide derived from the C-terminal region of Substance P (Gly-Leu-Met-NH2; UniProt P20366 66-68, looked up, fragment) [reference compound]”: in experiment [1], the “Magnesium Binding” value is 546 Nanograms of magnesium per 0.50 mg of membrane protein and 510 Nanograms of magnesium per 0.50 mg of membrane protein; the “measurable binding of magnesium ions” value is “no measurable activity”.
For the substance “Arg-Pro-Lys-Pro-Gln-Gln-Phe-Phe-Gly-Leu-Met-NH2 [Substance P, reference compound]”, the “effect of intravenously injected Substance P on blood pressure” value in the experiment with normotensive subjects is “the reduction in blood pressure resulted in lower than normal values”. Also, in [1], the “approximate ratios of binding activities” value was about 1.1 and the “measurable binding of magnesium ions” value is given as “promoted measurable binding”.
As to “Phe-Gly-Leu-Met-NH2 (FGLM-NH2; listed as Homo sapiens) [tetrapeptide]”, the “correction of the magnesium binding defect in erythrocytes (in words)” value in the experiment with SS/Jr rats [2] is recorded as “corrected; also recorded: corrects the magnesium binding defect”. For the same substance, the “effect on erythrocyte magnesium binding of control rats (in words)” value in the experiment with Sprague-Dawley rats [3] is on record as “unaffected; also recorded: had no influence”. Moreover, the “plasma glucose concentration, injected versus not injected” value with SS/Jr rats [4] is “not different”. Moreover, in the experiment on SS/Jr rats [5] (SS/Jr rats, intravenous administration), the “effect on blood pressure of hypertensive rats (in words)” value is on record as “fallen to control values; also recorded: corrected; also recorded: reduced the hypertensive blood pressure of the SS/Jr rats to the normal blood pressure of their controls; also recorded: reduced its systolic blood pressure from an elevated value of 210 mm Hg to the control value”. Besides, in the experiment on SS/Jr rats [5] (after i.v. injection), the “time for blood pressure to fall to control values / no further decrease” value was at most 10 min and the “time for blood pressure to return to the pre-injection level” value is at most 60 min. Further, in the experiment on Sprague-Dawley rats [6], the “effect on blood pressure of normotensive rats (in words)” value was “unaffected; also recorded: had no influence; also recorded: did not affect the blood pressures; also recorded: had no effect on systolic blood pressure”. Further, the “Magnesium Binding” value in experiment [1] (listed as 8-11 Substance P) is 968 Nanograms of magnesium per 0.50 mg of membrane protein and 954 Nanograms of magnesium per 0.50 mg of membrane protein. Besides, in experiment [1], the “activity relative to Substance P in promoting magnesium binding / correcting the MgBD” value is on record as “about four times as active as Substance P; also recorded: significantly more active than Substance P; also recorded: several fold more active than Substance P”, the “approximate ratios of binding activities” value is about 4.6 and the “measurable binding of magnesium ions” value is given as “promoted measurable binding”. For the same substance, the “binding of magnesium to erythrocyte membranes of hypertensive subjects after incubation (in words)” value in [7] is recorded as “returned to normal”. For the same substance, the “plasma glucose concentration, injected versus not injected” value in the experiment with Sprague-Dawley rats [8] is “not different”.
With “Phe-Phe-Gly-Leu-Met-NH2 (FFGLM-NH2; listed as Homo sapiens) [pentapeptide]”, the “effect on blood pressure of normotensive rats (in words)” value in the experiment with Sprague-Dawley rats [6] is listed as “had no effect on systolic blood pressure”. In experiment [1] (listed as 7-11 Substance P), the “Magnesium Binding” value was 886 Nanograms of magnesium per 0.50 mg of membrane protein and 866 Nanograms of magnesium per 0.50 mg of membrane protein. Moreover, in [1], the “activity relative to Substance P in promoting magnesium binding / correcting the MgBD” value is reported as “about four times as active as Substance P; also recorded: significantly more active than Substance P; also recorded: several fold more active than Substance P”, the “approximate ratios of binding activities” value was about 3.7 and the “measurable binding of magnesium ions” value is “promoted measurable binding”. For the same substance, the “binding of magnesium to erythrocyte membranes of hypertensive subjects after incubation (in words)” value in [7] was “returned to normal”.
